# According to patent publication US20100305204A1, “COMPOSITION USEFUL FOR THE PREVENTION OF ADVERSE EFFECT DUE TO THE USE OF PPAR-GAMMA AGONISTS” (SIGMA-TAU INDUSTRIE FARMACEUTICHE RIUNITE S.P.A., priority 2007, published 2010):
# “And” between values parts separate entries of the source, which are not always exact repeats. Equal values may be shown once.
# Columns and labels:
# osteocalcine = experiment: Serum levels of osteocalcine in rosiglitazone-treated patients affected by osteoporosis
# IGF1 = experiment: Serum levels of IGF1 in rosiglitazone-treated patients affected by osteoporosis
# [1] = Body weight (BW) of the patients
# [2] = T1 versus T0, a month of wash-out, 6 patients
# [3] = after 1-month rosiglitazone wash-out (T1), patients 1-6 individually and mean
# [4] = after treatment with rosiglitazone 8 mg/day orally for 12 months (T0), patients 1-6 individually and mean
smiles,measurement,setting,value
CN(CCOc1ccc(CC2SC(=O)NC2=O)cc1)c1ccccn1 (stereo not drawn) [rosiglitazone],Change of serum osteocalcine after wash-out,osteocalcine; [2],lightly incremented even if not significantly
same,"Serum level of osteocalcine, T1",osteocalcine; [3],0.0028 pg/mL and 0.0029 pg/mL and 0.003 pg/mL and 0.0027 pg/mL and 0.0026 pg/mL
same,"Serum level of osteocalcine, T0",osteocalcine; [4],0.0027 pg/mL and 0.003 pg/mL and 0.0031 pg/mL and 0.0023 pg/mL and 0.0022 pg/mL and 0.0026 pg/mL
same,Change of serum IGF1 after wash-out,IGF1; [2],lightly incremented even if not significantly
same,"Serum level of IGF1, T1",IGF1; [3],310000 pg/mL and 375000 pg/mL and 300000 pg/mL and 380000 pg/mL and 280000 pg/mL and 265000 pg/mL
same,"Serum level of IGF1, T0",IGF1; [4],300 ng/ml and 235 ng/ml and 260 ng/ml (2×) and 330 ng/ml and 270 ng/ml
same,Change of Total Body Water after wash-out,[2],didn't demonstrate variations
same,"TBW Total Body Water, T1",[3],50 and 50.2 and 53.5 and 48 and 50.8 and 49.9
same,"TBW Total Body Water, T0",[4],50.1 and 50.3 and 53.6 and 48 and 50.9 and 49.8
same,Change of body weight (BW) after wash-out,[1]; [2],didn't demonstrate variations
same,"BW Body weight, T1",[1]; [3],98.9 and 102 and 109 and 94.6 and 96.8 and 97
same,"BW Body weight, T0",[1]; [4],99 and 102.5 and 108.9 and 94.5 and 97.3 and 97.2
